Here are results for one compound from patent US20230172959A1, “USE OF NMN FOR THE PREVENTION AND/OR TREATMENT OF A BACK PAIN AND CORRESPONDING COMPOSITIONS” (NUVAMID SA, priority 2020, published 2023).

Molecules are shown by their SMILES.

What all share (format): in vivo, human
Data set [1] is described as follows: Adverse side effects and allergies reported by the volunteers. To be noted: 10 days topical use of 5% NMN emulsion, 12 volunteers. As to the method: A satisfaction study was carried out on a group of 12 volunteers, aged 42±8 years, consisting of seven female and five male subjects. The main objective of this study was to evaluate the level of satisfaction of subjects with regard to the evolution of their lumbalgia (low back pain) during the morning and/or evening application of a composition according to the invention containing 5% by weight of NMN.
A composition in the form of an oil-in-water emulsion comprising 5% NMN was formulated as follows, the ingredients being designated by their INCI (International Nomenclature of Cosmetic Ingredients) name: Aqua, Paraffinum liquidum, Cetyl alcohol, Glyceryl stearate, Benzyl PCA, Ceteareth-20, Ceteareth-12, Cetyl Palmitate, Cocoglycerides, Cetearyl alcohol, Sodium Hydroxide, NMN. The composition was prepared according to any method well known to the person skilled in the art.
Over the subsequent 9 day period, each evening the subjects fill in the Visual Analogue Scale of pain, ensuring any discomfort or problems arising or the taking of analgesics are reported therein.

Data set [2] deals with chronic lumbalgia. Briefly: WOMAC questionnaire, 10-day satisfaction study in 12 volunteers. As to the method: More precisely, the WOMAC score is calculated on the basis of the responses to the questions below: The total score corresponds to the average of the 24 items. The same is true for the score for each area of assessment. A satisfaction study was carried out on a group of 12 volunteers, aged 42±8 years, consisting of seven female and five male subjects. The main objective of this study was to evaluate the level of satisfaction of subjects with regard to the evolution of their lumbalgia (low back pain) during the morning and/or evening application of a composition according to the invention containing 5% by weight of NMN. A composition in the form of an oil-in-water emulsion comprising 5% NMN was formulated as follows, the ingredients being designated by their INCI (International Nomenclature of Cosmetic Ingredients) name: Aqua, Paraffinum liquidum, Cetyl alcohol, Glyceryl stearate, Benzyl PCA, Ceteareth-20, Ceteareth-12, Cetyl Palmitate, Cocoglycerides, Cetearyl alcohol, Sodium Hydroxide, NMN. The composition was prepared according to any method well known to the person skilled in the art. The study took place over 10 days. At baseline, ie upon inclusion (DO), the selected subjects provide their demographic characteristics (age, weight, height), indicate the period of persistence and intensity of the pain on a Visual Analogue Scale, and complete the WOMAC and Lequesne questionnaires. These different scales were used in order to assess by different means the effect of NMN on lumbalgia. On day 10, the volunteers complete the WOMAC questionnaire, the Lequesne questionnaire, the Visual Analogue Scale (VAS) of pain, indicating the perceived improvement in lumbalgia pain relief as measured by the PGI-I index (abbreviation for “Patient Global Improvement Impression”), satisfaction with regard to evolution of the lumbalgia on a Likert scale as well as the ease of application and penetration of the composition, assessment of the texture and odour of the composition, likelihood of re-use thereof in the event of recurrence of a similar pain, and recommendation of use to third parties presenting with pain of similar nature. The PGI-I index is an index that serves as means for evaluating the response to a treatment. The Likert scale is a psychometric tool used for measuring an attitude in individuals, which consists of one or more statements for which the individual responding expresses their degree of agreement or disagreement.

Data set [3] relates to chronic lumbalgia. As to the kind of experiment: Perceived improvement (PGI-I index) and satisfaction with evolution of lumbalgia (Likert scale). To be noted: end of the study. As to the method:
A satisfaction study was carried out on a group of 12 volunteers, aged 42±8 years, consisting of seven female and five male subjects. The main objective of this study was to evaluate the level of satisfaction of subjects with regard to the evolution of their lumbalgia (low back pain) during the morning and/or evening application of a composition according to the invention containing 5% by weight of NMN. A composition in the form of an oil-in-water emulsion comprising 5% NMN was formulated as follows, the ingredients being designated by their INCI (International Nomenclature of Cosmetic Ingredients) name: Aqua, Paraffinum liquidum, Cetyl alcohol, Glyceryl stearate, Benzyl PCA, Ceteareth-20, Ceteareth-12, Cetyl Palmitate, Cocoglycerides, Cetearyl alcohol, Sodium Hydroxide, NMN. The composition was prepared according to any method well known to the person skilled in the art. On day 10, the volunteers complete the WOMAC questionnaire, the Lequesne questionnaire, the Visual Analogue Scale (VAS) of pain, indicating the perceived improvement in lumbalgia pain relief as measured by the PGI-I index (abbreviation for “Patient Global Improvement Impression”), satisfaction with regard to evolution of the lumbalgia on a Likert scale as well as the ease of application and penetration of the composition, assessment of the texture and odour of the composition, likelihood of re-use thereof in the event of recurrence of a similar pain, and recommendation of use to third parties presenting with pain of similar nature. The PGI-I index is an index that serves as means for evaluating the response to a treatment. The Likert scale is a psychometric tool used for measuring an attitude in individuals, which consists of one or more statements for which the individual responding expresses their degree of agreement or disagreement.

The mark [4] stands for this setting: after 10 days vs baseline, p<0.001.

Regarding `NC(=O)c1ccc[n+]([C@@H]2O[C@H](COP(=O)([O-])O)[C@@H](O)[C@H]2O)c1` (stereo in doubt) [NMN, nicotinamide mononucleotide], in data set [1], the adverse side effects result is on record as “neither any adverse side effects” and the allergies result is reported as “nor developed any allergies”. Further, the “WOMAC "function" criterion” value with chronic lumbalgia [2] (after 10 days of application, baseline 57.1±15.5, 5% NMN emulsion topical) came out at 30.8±21.8. Also, the “total WOMAC score” value in the data set with chronic lumbalgia [2] (after 10 days of application, baseline 58.3±14.8, 5% NMN emulsion topical) came out at 30.9±21.7. For the same compound, in the data set with chronic lumbalgia [2] (after 10 days of application, baseline 59.9±13.1, 5% NMN emulsion topical), the “WOMAC "pain" criterion” value amounted to 31.0±21.2. The “WOMAC "stiffness" criterion” value in the data set on chronic lumbalgia [2] (after 10 days of application, baseline 64.2±21.0, 5% NMN emulsion topical) is listed as 31.6±25.0. Further, in the data set with chronic lumbalgia [2] (setting [4]), the “decrease of total WOMAC score” value came to 48.6±33.7%, the “reduction of WOMAC "pain" criterion” value worked out at 50.1±31.3% and the “reduction of WOMAC "stiffness" criterion” value turned out to be 52.5±32.9%. In the data set on chronic lumbalgia [2] (after 10 days vs baseline, p<0.01), the “reduction of WOMAC "function" criterion” value was found to be 47.5±35.6%. Moreover, the “subjects with improvement characterised as 'considerable'” value in the data set on chronic lumbalgia [3] (3 subjects) is 25.0%. Moreover, in the data set with chronic lumbalgia [3] (4 subjects), the “subjects with improvement characterised as 'a lot'” value amounted to 33.3% and the “subjects with improvement characterised as 'slight'” value stood at 33.3%. In the data set with chronic lumbalgia [3] (12 subjects), the “subjects who experienced improvement” value was 91.7%. Moreover, in the data set with chronic lumbalgia [3] (Likert scale), the “participants satisfied with the evolution of their chronic lumbalgia” value was determined as 91.7% and the “participants very satisfied with the evolution of their chronic lumbalgia” value was determined as 33.3%.
